Results taken from patent publication US4432984A, “Anti-hypertensive benzodioxan derivatives” (Bouchara; Emile, priority 1981, dated 1984).
Counter-ions that a name gives are not always drawn.

Tests used:
central nervous system = assay: Effects on the central nervous system in mice; assay type: in vivo; settings: oral, same dosages which induce an anti-hypertensive activity in rats
Excerpt: Such central effects may be directly related to the hypotensive action.

[1] = Acute toxicity in mice by the oral route; settings: mouse, in vivo, per os, read-out: Approximate lethal dose 50 (LD50)
Protocol: Toxicity was determined in mice by the oral route.

| Structure (SMILES) | aggressiveness (central nervous system) | experimentally-induced sleep (central nervous system) | sedation (central nervous system) | LD50 [1] |
| --- | --- | --- | --- | --- |
| O=C(c1ccc(F)cc1)C1CCN(CC2COc3ccccc3O2)CC1 (centres unmarked) [Example 2, 1-[(2,3-Dihydro-4H-1,4-benzodioxin)-2-ylmethyl]-4-(4-fluorobenzoyl)piperidine hydrochloride] | a decrease of the aggressiveness | a potentiation of the experimentally-induced sleep | a state of sedation | 495 to 655 mg/kg |
| O=C(Oc1ccc(C(=O)C2CCN(CC3COc4ccccc4O3)CC2)cc1)c1cccnc1 (centres unmarked) [Example 8, 1-[(2,3-Dihydro-4H-1,4-benzodioxin)-2-ylmethyl]-4-(4-hydroxybenzoyl)piperidine nicotinate] | – | – | – | > 3200 mg/kg |
